Laboratory results: ChEMBL document CHEMBL1159059, “Fluoroalkene modification of mercaptoacetamide-based histone deacetylase inhibitors” (Bioorg Med Chem, 2010)

Target: Histone deacetylase
Assay: Inhibition of HDAC in human HeLa cell nuclear extract by fluorescence assay
Assay type: cell-based

Question: For `O=C(CCCCC/C=C(\F)CS)Nc1ccccc1`, which IC50 is on record?
Answer: Its IC50 is 360 nM.

Question: With `O=C(CCCC/C=C(\F)CS)Nc1ccccc1` as the compound, how does the IC50 read?
Answer: The IC50 was 510 nM.

Question: With `O=C(NCCCCC/C=C(\F)CS)c1ccccc1` as the compound, how does the IC50 read?
Answer: The IC50 was 290 nM.
